Assay results from patent publication US11524934B2, “Phenylamine compounds” (PI INDUSTRIES LTD., priority 2017, dated 2022).

Legend:
[1] = tested on: Phakopsora pachyrhizi; assay: Phakopsora pachyrhizi test in soybean (in vivo on plants), preventive activity; settings: preventive spray on soybean plants, inoculated one day after treatment, disease severity rated vs untreated check
Method: Example 8 (In Vivo on Plants): Phakopsora pachyrhizi Test in Soybean
Compounds were dissolved in 2% DMSO/Acetone & then mixed with water to the calibrated spray volume of 50 ml and poured into the spray bottles for further applications.
To test the preventive activity of compounds, healthy young soybean plants raised in the greenhouse were sprayed with active compound preparation at the stated application rates inside the spray cabinets using hallowcone nozzles. One day after treatment, the plants were inoculated with spore suspension containing 2.1×10^6 Phakopsora pachyrhizi inoculum. The inoculated plants were then kept in greenhouse chamber at 25° C. temperature & 90% Relative Humidity for disease expression.
A visual assessment of compound's performance was carried out by rating the disease severity (0-100% scale) on treated plants on 3, 7, 10 & 15 days after application. Efficacy (% control) of the compounds was calculated by comparing the disease rating in the treatment with the one of the untreated control. The sprayed plants were also assessed for compound's plant compatibility by recording symptoms like necrosis, chlorosis & stunting.

[2] = tested on: Pyricularia oryzae; assay: microbe, parasite or virus in culture; format: cell-based; settings: 168 h, read-out: control
[3] = tested on: Botrytis cinerea; assay: Botrytis cinerea (Gray mold) in vitro test, radial growth on Potato Dextrose Agar; settings: 168 h, read-out: control
[4] = tested on: Septoria lycopersici; assay: Septoria lycopersici (Leaf spot of tomato) in vitro test, radial growth on Potato Dextrose Agar; settings: 168 h, read-out: control
[5] = tested on: Alternaria solani; assay: Alternaria solani (early blight of tomato/potato) in vitro test, radial growth on Potato Dextrose Agar; settings: 168 h, read-out: control
[6] = tested on: Rhizoctonia solani; settings: 168 h, read-out: control

| Structure (SMILES) | pest or weed control at 500 ppm [1] | inhibition of growth at 300 ppm [2] | inhibition of growth at 300 ppm [3] | inhibition of growth at 300 ppm [4] | inhibition of growth at 300 ppm [5] | inhibition of growth at 300 ppm [6] |
| --- | --- | --- | --- | --- | --- | --- |
| C=CCN(C)C=Nc1cc(C)c(C(=O)COc2cccc(Cl)c2)cc1C [Compound 43, N-allyl-N′-(4-(2-(3-chlorophenoxy)acetyl)-2,5-dimethylphenyl)-N-methylformimidamide] | > 90% |  |  |  |  |  |
| CCN(C)C=Nc1cc(C)c(C(=O)CSc2ccccc2)cc1C [Compound 1, N′-(2,5-dimethyl-4-(2-(phenylthio)acetyl)phenyl)-N-ethyl-N-methylformimidamide] | > 90% | > 70% | > 70% | > 70% | > 70% | > 70% |
| CCN(C)C=Nc1cc(C)c(C(=O)CSc2ccc(Cl)cc2)cc1Cl [Compound 38, N′-(2-chloro-4-(2-((4-chlorophenyl)thio)acetyl)-5-methylphenyl)-N-ethyl-N-methylformimidamide] | > 90% |  |  |  |  |  |
| CCN(C)C=Nc1cc(C)c(C(=O)CSc2ccccc2Br)cc1Cl [Compound 39, N′-(4-(2-((2-bromophenyl)thio)acetyl)-2-chloro-5-methylphenyl)-N-ethyl-N-methylformimidamide] | > 90% |  |  |  |  |  |
| CCN(C)C=Nc1cc(C)c(C(=O)COc2ccccc2F)cc1Cl [Compound 44, N′-(2-chloro-4-(2-(2-fluorophenoxy)acetyl)-5-methylphenyl)-N-ethyl-N-methylformimidamide] | > 90% |  |  |  |  |  |
| CCN(C)C=Nc1cc(C)c(C(=O)CSc2ccc(Cl)c(Cl)c2)cc1C [Compound 8, N′-(4-(2-((3,4-dichlorophenyl)thio)acetyl)-2,5-dimethylphenyl)-N-ethyl-N-methylformimidamide] | > 90% | > 70% | > 70% |  | > 70% | > 70% |
| CCN(C)C=Nc1cc(C)c(C(=O)CSc2ncc(C(F)(F)F)cc2Cl)cc1C [Compound 18, N′-(4-(2-((3-chloro-5-(trifluoromethyl)pyridin-2-yl)thio)acetyl)-2,5-dimethylphenyl)-N-ethyl-N-methylformimidamide] | > 90% | > 70% | > 70% |  | > 70% | > 70% |
| Cc1cc(C(=O)COc2cccc(Cl)c2)c(C)cc1N=CN1CCCCC1 [Compound 41, 2-(3-chlorophenoxy)-1-(2,5-dimethyl-4-((piperidin-1-ylmethylene)amino)phenyl)ethan-1-one] | > 90% |  |  |  | > 70% | > 70% |
| CCN(C)C=Nc1cc(C)c(C(=O)COc2ccc(F)cc2)cc1Cl [Compound 45, N′-(2-chloro-4-(2-(4-fluorophenoxy)acetyl)-5-methylphenyl)-N-ethyl-N-methylformimidamide] | > 90% |  |  |  |  |  |
| CCN(C)C=Nc1cc(C)c(C(=O)COc2ccc(OC)cc2)cc1C [Compound 10, N-ethyl-N′-(4-(2-(4-methoxyphenoxy)acetyl)-2,5-dimethylphenyl)-N-methylformimidamide] | > 90% | > 70% |  | > 70% | > 70% | > 70% |
| Cc1cc(C(=O)COc2cccc(Cl)c2)c(C)cc1N=CN1CCOCC1 [Compound 40, 2-(3-chlorophenoxy)-1-(2,5-dimethyl-4-((morpholinomethylene)amino)phenyl)ethan-1-one] | > 90% |  |  |  | > 70% |  |
| Cc1ccc(SCC(=O)c2cc(C)c(N=CN3CCOCC3)cc2C)cc1C [Compound 49, 1-(2,5-dimethyl-4-((morpholinomethylene)amino)phenyl)-2-((3,4-dimethylphenyl)thio)ethan-1-one] | > 90% |  |  |  |  |  |
| Cc1cc(C(=O)COc2cccc(Cl)c2)c(C)cc1N=CNC#N [Compound 46, N′-(4-(2-(3-chlorophenoxy)acetyl)-2,5-dimethylphenyl)-N-cyanoformimidamide] | > 90% |  |  |  |  |  |
| CCN(C)C=Nc1cc(C)c(C(=O)COc2ccc(F)cc2)cc1C [Compound 33, N-ethyl-N′-(4-(2-(4-fluorophenoxy)acetyl)-2,5-dimethylphenyl)-N-methylformimidamide] |  | > 70% |  | > 70% | > 70% | > 70% |
| CCN(C)C=Nc1cc(C)c(C(=O)COc2ccccc2Br)cc1C [Compound 34, N′-(4-(2-(2-bromophenoxy)acetyl)-2,5-dimethylphenyl)-N-ethyl-N-methylformimidamide] |  | > 70% |  | > 70% | > 70% | > 70% |
| CCN(C)C=Nc1cc(C)c(C(=O)COc2ccc(Cl)cc2)cc1C [Compound 16, N′-(4-(2-(4-chlorophenoxy)acetyl)-2,5-dimethylphenyl)-N-ethyl-N-methylformimidamide] |  | > 70% |  | > 70% | > 70% |  |
| CCN(C)C=Nc1cc(C)c(C(=O)CSc2ccccc2Br)cc1C [Compound 30, N′-(4-(2-((2-bromophenyl)thio)acetyl)-2,5-dimethylphenyl)-N-ethyl-N-methylformimidamide] |  | > 70% | > 70% | > 70% | > 70% | > 70% |
| CCN(C)C=Nc1cc(C)c(C(=O)CSc2ccc(Cl)c(Cl)c2)cc1Cl [Compound 50, N′-(2-chloro-4-(2-((3,4-dichlorophenyl)thio)acetyl)-5-methylphenyl)-N-ethyl-N-methylformimidamide] | > 90% |  |  |  |  |  |
| CCN(C)C=Nc1cc(C)c(C(=O)COc2ccccc2Br)cc1Cl [Compound 31, N′-(4-(2-(2-bromophenoxy)acetyl)-2-chloro-5-methylphenyl)-N-ethyl-N-methylformimidamide] |  | > 70% |  | > 70% | > 70% | > 70% |
| Cc1cc(C(=O)COc2cccc(Cl)c2)c(C)cc1N=CN(C)C(C)C [Compound 42, N′-(4-(2-(3-chlorophenoxy)acetyl)-2,5-dimethylphenyl)-N-isopropyl-N-methylformimidamide] | > 90% | > 70% |  | > 70% | > 70% | > 70% |
| CCN(C)C=Nc1cc(C)c(C(=O)COc2cccc(C)c2)cc1Cl [Compound 26, N′-(2-chloro-5-methyl-4-(2-(m-tolyloxy)acetyl)phenyl)-N-ethyl-N-methylformimidamide] | > 90% |  |  |  | > 70% |  |
| CCN(C)C=Nc1cc(C)c(C(=O)COc2cc(Cl)ccc2C)cc1C [Compound 96, N′-(4-(2-(5-chloro-2-methylphenoxy)acetyl)-2,5-dimethylphenyl)-N-ethyl-N-methylformimidamide] |  | > 70% | > 70% | > 70% | > 70% | > 70% |
| CCN(C)C=Nc1cc(C)c(C(=O)COc2ccc(Cl)cc2Cl)cc1C [Compound 94, N′-(4-(2-(2,4-dichlorophenoxy)acetyl)-2,5-dimethylphenyl)-N-ethyl-N-methylformimidamide] |  | > 70% | > 70% | > 70% | > 70% | > 70% |
| CCN(C)C=Nc1cc(C)c(C(=O)COc2ccc(C)cc2Cl)cc1C [Compound 93, N′-(4-(2-(2-chloro-4-methylphenoxy)acetyl)-2,5-dimethylphenyl)-N-ethyl-N-methylformimidamide] |  | > 70% | > 70% | > 70% | > 70% | > 70% |
| Cc1ccc(SCC(=O)c2cc(C)c(N=CN(C)C(C)C)cc2C)cc1C [Compound 47, N′-(4-(2-((3,4-dimethylphenyl)thio)acetyl)-2,5-dimethylphenyl)-N-isopropyl-N-methylformimidamide] | > 90% | > 70% |  |  | > 70% | > 70% |
| CCN(C)C=Nc1cc(C)c(C(=O)COc2cc(C)ccc2C)cc1C [Compound 95, N′-(4-(2-(2,5-dimethylphenoxy)acetyl)-2,5-dimethylphenyl)-N-ethyl-N-methylformimidamide] |  | > 70% | > 70% | > 70% | > 70% | > 70% |
| C=CCN(C)C=Nc1cc(C)c(C(=O)CSc2ccc(C)c(C)c2)cc1C [Compound 48, N-allyl-N′-(4-(2-((3,4-dimethylphenyl)thio)acetyl)-2,5-dimethylphenyl)-N-methylformimidamide] | > 90% |  |  |  |  |  |
